According to patent publication US20020065219A1, “Water soluble thiazolyl peptide derivatives” (priority 2000, published 2002):
Values after ≈ are worked out from the molar mass of the structure shown. Like-named read-outs stand apart in the source and are kept apart here.

Tests used:
Experiment in all cases: MIC, broth micro dilution assay (NCCLS)
Format in all cases: cell-based
[1] = system: Staphylococcus aureus A15090
[2] = system: Streptococcus pneumoniae A28272
[3] = system: Enterococcus faecalis A20688
[4] = Mueller-Hinton medium, 35° C., 18 hours
[5] = 50% Mueller-Hinton medium and 50% Todd Hewitt medium, 35° C., 18 hours

Structure (SMILES) | MIC (μg/mL) against Staphylococcus aureus A15090 [1] [µg/mL] | MIC (μg/mL) against Streptococcus pneumoniae A28272 [2] [µg/mL] | MIC (μg/mL) against Enterococcus faecalis A20688 [3] [µg/mL] | MIC (μg/mL) against Staphylococcus aureus A15090 [1, 4] [µg/mL] | MIC (μg/mL) against Streptococcus pneumoniae A28272 [2, 5] [µg/mL] | MIC (μg/mL) against Enterococcus faecalis A20688 [3, 4] [µg/mL] | further results
CO/C(C)=C1/NC(=O)C(C(C)O)NC(=O)c2csc(n2)-c2cc(O)c(-c3nc(C(=O)NC(CNCc4nn[nH]n4)C(N)=O)cs3)nc2-c2csc(n2)C2COC(=O)c3c4c5c(cccc5n3O)COC(=O)C(O[C@H]3C[C@](C)(O)[C@H](N(C)C)[C@H](C)O3)C(OC4)C(NC(=O)c3csc1n3)c1nc(cs1)C(=O)N2 (stereo partly drawn) [Example 50] | 0.25 (≈ 0.163 µM) | 0.25 (≈ 0.163 µM) | 1.0 (≈ 0.651 µM) |  |  |  | 
COC(C)=C1NC(=O)C(C(C)O)NC(=O)c2csc(n2)-c2cc(O)c(-c3nc(C(=O)NC(CN4CCCC4C(O)C4CCCCC4)C(N)=O)cs3)nc2-c2csc(n2)C2COC(=O)c3c4c5c(cccc5n3O)COC(=O)C(OC3CC(C)(O)C(N(C)C)C(C)O3)C(OC4)C(NC(=O)c3csc1n3)c1nc(cs1)C(=O)N2 (stereo not drawn) [Example 90] |  |  |  | 0.03 (≈ 0.0185 µM) | 0.007 (≈ 0.00432 µM) | 0.06 (≈ 0.037 µM) | 
CO/C(C)=C1/NC(=O)C(C(C)O)NC(=O)c2csc(n2)-c2cc(O)c(-c3nc(C(=O)NC(CNCc4cc(OC)c(OC)c(OC)c4)C(N)=O)cs3)nc2-c2csc(n2)C2COC(=O)c3c4c5c(cccc5n3O)COC(=O)C(O[C@H]3C[C@](C)(O)[C@H](N(C)C)[C@H](C)O3)C(OC4)C(NC(=O)c3csc1n3)c1nc(cs1)C(=O)N2 (stereo partly drawn) [Example 70] | 0.25 (≈ 0.153 µM) | 0.06 (≈ 0.0367 µM) | 4.0 (≈ 2.45 µM) |  |  |  | 
COC(C)=C1NC(=O)C(C(C)O)NC(=O)c2csc(n2)-c2cc(O)c(-c3nc(C(=O)NC(CN(C)CCC(=O)Nc4ccncc4)C(N)=O)cs3)nc2-c2csc(n2)C2COC(=O)c3c4c5c(cccc5n3O)COC(=O)C(OC3CC(C)(O)C(N(C)C)C(C)O3)C(OC4)C(NC(=O)c3csc1n3)c1nc(cs1)C(=O)N2 (stereo not drawn) [Example 82] |  |  |  | 0.5 (≈ 0.309 µM) | 0.03 (≈ 0.0186 µM) | 0.5 (≈ 0.309 µM) | 
COC(C)=C1NC(=O)C(C(C)O)NC(=O)c2csc(n2)-c2cc(O)c(-c3nc(C(=O)NC(CN4CCCC4C(C)O)C(N)=O)cs3)nc2-c2csc(n2)C2COC(=O)c3c4c5c(cccc5n3O)COC(=O)C(OC3CC(C)(O)C(N(C)C)C(C)O3)C(OC4)C(NC(=O)c3csc1n3)c1nc(cs1)C(=O)N2 (stereo not drawn) [Example 88] |  |  |  | 0.007 (≈ 0.00451 µM) | 0.03 (≈ 0.0193 µM) | 0.06 (≈ 0.0386 µM) | 
COC(C)=C1NC(=O)C(C(C)O)NC(=O)c2csc(n2)-c2cc(O)c(-c3nc(C(=O)NC(CN4CCN(Cc5cc(OC)c(OC)c(OC)c5)CC4)C(N)=O)cs3)nc2-c2csc(n2)C2COC(=O)c3c4c5c(cccc5n3O)COC(=O)C(OC3CC(C)(O)C(N(C)C)C(C)O3)C(OC4)C(NC(=O)c3csc1n3)c1nc(cs1)C(=O)N2 (stereo not drawn) [Example 71] | 1.0 (≈ 0.587 µM) | 0.5 (≈ 0.293 µM) | 2.0 (≈ 1.17 µM) |  |  |  | 
COC(C)=C1NC(=O)C(C(C)O)NC(=O)c2csc(n2)-c2cc(O)c(-c3nc(C(=O)NC(CSCC4NC(=O)NC4=O)C(N)=O)cs3)nc2-c2csc(n2)C2COC(=O)c3c4c5c(cccc5n3O)COC(=O)C(OC3CC(C)(O)C(N(C)C)C(C)O3)C(OC4)C(NC(=O)c3csc1n3)c1nc(cs1)C(=O)N2 (stereo not drawn) [Example 45] |  |  |  | 4.0 (≈ 2.53 µM) | 0.03 (≈ 0.0189 µM) | 128 (≈ 80.8 µM) | 
COCC(Cn1ccnc1)SCC(NC(=O)c1csc(-c2nc3c(cc2O)-c2nc(cs2)C(=O)NC(C(C)O)C(=O)NC(=C(C)OC)c2nc(cs2)C(=O)NC2c4nc(cs4)C(=O)NC(COC(=O)c4c5c6c(cccc6n4O)COC(=O)C(OC4CC(C)(O)C(N(C)C)C(C)O4)C2OC5)c2nc-3cs2)n1)C(N)=O (stereo not drawn) [Example 80] |  |  |  | 0.25 (≈ 0.155 µM) | 0.03 (≈ 0.0186 µM) | 0.125 (≈ 0.0776 µM) | 
COC(C)=C1NC(=O)C(C(C)O)NC(=O)c2csc(n2)-c2cc(O)c(-c3nc(C(=O)NC(CN(C)CCc4ccccn4)C(N)=O)cs3)nc2-c2csc(n2)C2COC(=O)c3c4c5c(cccc5n3O)COC(=O)C(O)C(OC4)C(NC(=O)c3csc1n3)c1nc(cs1)C(=O)N2 (stereo not drawn) [Example 93] |  |  |  | 0.06 (≈ 0.0428 µM) | 0.001 (≈ 0.000713 µM) | 0.06 (≈ 0.0428 µM) | 
CO/C(C)=C1/NC(=O)C(C(C)O)NC(=O)c2csc(n2)-c2cc(O)c(-c3nc(C(=O)NC(CN4CCN(c5ccncc5)CC4)C(N)=O)cs3)nc2-c2csc(n2)C2COC(=O)c3c4c5c(cccc5n3O)COC(=O)C(O[C@H]3C[C@](C)(O)[C@H](N(C)C)[C@H](C)O3)C(OC4)C(NC(=O)c3csc1n3)c1nc(cs1)C(=O)N2 (stereo partly drawn) [Example 52] | 0.5 (≈ 0.312 µM) | 0.5 (≈ 0.312 µM) | 1.0 (≈ 0.625 µM) |  |  |  | 
CO/C(C)=C1/NC(=O)C(C(C)O)NC(=O)c2csc(n2)-c2cc(O)c(-c3nc(C(=O)NC(CSCC(=O)OCc4ccccc4)C(N)=O)cs3)nc2-c2csc(n2)C2COC(=O)c3c4c5c(cccc5n3O)COC(=O)C(O[C@H]3C[C@](C)(O)[C@H](N(C)C)[C@H](C)O3)C(OC4)C(NC(=O)c3csc1n3)c1nc(cs1)C(=O)N2 (stereo partly drawn) [Example 34] |  |  |  | 1.0 (≈ 0.617 µM) | 0.001 (≈ 0.000617 µM) | 1.0 (≈ 0.617 µM) | 
CO/C(C)=C1/NC(=O)C(C(C)O)NC(=O)c2csc(n2)-c2cc(O)c(-c3nc(C(=O)NC(CN(C)CCO)C(N)=O)cs3)nc2-c2csc(n2)C2COC(=O)c3[nH]c4cccc5c4c3COC(C(O[C@H]3C[C@](C)(O)[C@H](N(C)C)[C@H](C)O3)C(=O)OC5)C(NC(=O)c3csc1n3)c1nc(cs1)C(=O)N2 (stereo partly drawn) [Example 92] |  |  |  | 0.125 (≈ 0.0835 µM) | 0.0005 (≈ 0.000334 µM) | 0.125 (≈ 0.0835 µM) | 
COC(C)=C1NC(=O)C(C(C)O)NC(=O)c2csc(n2)-c2cc(O)c(-c3nc(C(=O)NC(CSCC(NC(C)=O)C(=O)O)C(N)=O)cs3)nc2-c2csc(n2)C2COC(=O)c3c4c5c(cccc5n3O)COC(=O)C(OC3CC(C)(O)C(N(C)C)C(C)O3)C(OC4)C(NC(=O)c3csc1n3)c1nc(cs1)C(=O)N2 (stereo not drawn) [Example 43] |  |  |  | 2.0 (≈ 1.25 µM) | 0.125 (≈ 0.0781 µM) | 8.0 (≈ 5 µM) | 
CN[C@@H]1[C@H](C)O[C@@H](OC2C(=O)OCc3cccc4c3c3c(n4O)C(=O)OCC4NC(=O)c5csc(n5)C(NC(=O)c5csc(n5)/C(=C(/C)OC)NC(=O)C(C(C)O)NC(=O)c5csc(n5)-c5cc(O)c(-c6nc(C(=O)NC(CN(C)CCO)C(N)=O)cs6)nc5-c5csc4n5)C2OC3)C[C@]1(C)O (stereo partly drawn) [Example 99] | 0.03 (≈ 0.02 µM) | 0.015 (≈ 0.01 µM) | 0.125 (≈ 0.0834 µM) |  |  |  | 
CO/C(C)=C1/NC(=O)C(C(C)O)NC(=O)c2csc(n2)-c2cc(O)c(-c3nc(C(=O)NC(CNCCOCCOCCOCCN)C(N)=O)cs3)nc2-c2csc(n2)C2COC(=O)c3c4c5c(cccc5n3O)COC(=O)C(O[C@H]3C[C@](C)(O)[C@H](N(C)C)[C@H](C)O3)C(OC4)C(NC(=O)c3csc1n3)c1nc(cs1)C(=O)N2 (stereo partly drawn) [Example 58] | 1.0 (≈ 0.614 µM) | 0.25 (≈ 0.153 µM) | 1.0 (≈ 0.614 µM) |  |  |  | 
CO/C(C)=C1/NC(=O)C(C(C)O)NC(=O)c2csc(n2)-c2cc(O)c(-c3nc(C(=O)NC(CSCCN(C)C)C(N)=O)cs3)nc2-c2csc(n2)C2COC(=O)c3c4c5c(cccc5n3O)COC(=O)C(O[C@H]3C[C@](C)(O)[C@H](N(C)C)[C@H](C)O3)C(OC4)C(NC(=O)c3csc1n3)c1nc(cs1)C(=O)N2 (stereo partly drawn) [Example 10] |  |  |  |  |  |  | MIC ([1]; Staphylococcus aureus, A15090, 18 h, read-out: MIC (μg/mL) against Staphylococcus aureus A15090): 0.125 µg/mL (≈ 0.081 µM); MIC ([2]; Streptococcus pneumoniae, A28272, 18 h, read-out: MIC (μg/mL) against Streptococcus pneumoniae A28272): 0.015 µg/mL (≈ 0.00972 µM); MIC ([3]; Enterococcus faecalis, A20688, 18 h, read-out: MIC (μg/mL) against Enterococcus faecalis A20688): 0.25 µg/mL (≈ 0.162 µM)
CO/C(C)=C1/NC(=O)C(C(C)O)NC(=O)c2csc(n2)-c2cc(O)c(-c3nc(C(=O)NC(CN(C)Cc4ccccc4O[C@@H]4O[C@H](CO)[C@@H](O)[C@H](O)[C@H]4O)C(N)=O)cs3)nc2-c2csc(n2)C2COC(=O)c3c4c5c(cccc5n3O)COC(=O)C(O[C@H]3C[C@](C)(O)[C@H](N(C)C)[C@H](C)O3)C(OC4)C(NC(=O)c3csc1n3)c1nc(cs1)C(=O)N2 (stereo partly drawn) [Example 29] |  |  |  | 0.06 (≈ 0.0345 µM) | 0.015 (≈ 0.00864 µM) | 0.25 (≈ 0.144 µM) | 
COC(C)=C1NC(=O)C(C(C)O)NC(=O)c2csc(n2)-c2cc(O)c(-c3nc(C(=O)NC(CN4CCN(c5cccnc5)CC4)C(N)=O)cs3)nc2-c2csc(n2)C2COC(=O)c3c4c5c(cccc5n3O)COC(=O)C(OC3CC(C)(O)C(N(C)C)C(C)O3)C(OC4)C(NC(=O)c3csc1n3)c1nc(cs1)C(=O)N2 (stereo not drawn) [Example 85] | 0.06 (≈ 0.0375 µM) | 0.007 (≈ 0.00437 µM) | 0.25 (≈ 0.156 µM) |  |  |  | 
CO/C(C)=C1/NC(=O)C(C(C)O)NC(=O)c2csc(n2)-c2cc(O)c(-c3nc(C(=O)NC(CN4CCN(C(C)=O)CC4)C(N)=O)cs3)nc2-c2csc(n2)C2COC(=O)c3c4c5c(cccc5n3O)COC(=O)C(O[C@H]3C[C@](C)(O)[C@H](N(C)C)[C@H](C)O3)C(OC4)C(NC(=O)c3csc1n3)c1nc(cs1)C(=O)N2 (stereo partly drawn) [Example 21] |  |  |  | 0.5 (≈ 0.319 µM) | 0.03 (≈ 0.0192 µM) | 2.0 (≈ 1.28 µM) | 
CO/C(C)=C1/NC(=O)C(C(C)O)NC(=O)c2csc(n2)-c2cc(O)c(-c3nc(C(=O)NC(CN(C)CC(O)C(O)C(O)C(O)CO)C(N)=O)cs3)nc2-c2csc(n2)C2COC(=O)c3c4c5c(cccc5n3O)COC(=O)C(O[C@H]3C[C@](C)(O)[C@H](N(C)C)[C@H](C)O3)C(OC4)C(NC(=O)c3csc1n3)c1nc(cs1)C(=O)N2 (stereo partly drawn) [Example 31] |  |  |  | 0.125 (≈ 0.0766 µM) | 0.125 (≈ 0.0766 µM) | 1.0 (≈ 0.612 µM) | 
